Laboratory results as given in publication PMC11350809, “Targeting N-Acetylglucosaminidase in Staphylococcus aureus with Iminosugar Inhibitors” (Antibiotics, 2024).
Like-named read-outs stand apart in the source and are kept apart here.

Legend:
[1] = target: β-Glucosidase (from almond); conditions: cited from earlier work
[2] = target: β-Galactosidase (from bovine liver); conditions: cited from earlier work
[3] = target: α-Galactosidase (from green coffee beans); conditions: cited from earlier work
[4] = target: β-galactocerebrosidase (GALC); conditions: cited from earlier work
naringinase (Nar) = conditions: cited from earlier work
E. coli (ATCC 25922) = assay: Minimal inhibitory concentration, broth microdilution (negative control strain); format: cell-based; conditions: Escherichia coli, ATCC25922
Method: (§1) The minimal inhibitory concentrations (MICs) were determined against the bacterial strains S. aureus (ATCC 29213) and E. coli (ATCC 25922), and the results are presented in Table S6.
(§2) Antimicrobial testing was carried out by the broth microdilution method in a 96-well plate format following the CLSI guidelines and European Committee for Antimicrobial Susceptibility Testing (EUCAST) recommendations. Bacterial suspension of a specific bacterial strain equivalent to 0.5 McFarland turbidity standard was diluted with cation-adjusted Mueller Hinton broth to obtain a final inoculum of 10^5 CFU/mL. Compounds dissolved in 20% DMSO and inoculum were mixed together and incubated for 20 h at 35 °C. After incubation, the minimal inhibitory concentration (MIC) values were determined by visual inspection as the lowest dilution of compounds showing no turbidity. The MICs were determined against S. aureus (ATCC 29213) and E. coli (ATCC 25922) bacterial strains. Tetracycline was used as a positive control on every assay plate, showing MICs of 0.5 µg/mL and 1 µg/mL for S. aureus and E. coli, respectively.

[5] = target: α-Glucosidase (from baker's yeast); conditions: cited from earlier work
[6] = target: human recombinant β-glucocerebrosidase (GBA); conditions: cited from earlier work
S. aureus (ATCC 29213) = assay: Minimal inhibitory concentration, broth microdilution; format: cell-based, Staphylococcus aureus; conditions: for MIC: Staphylococcus aureus, ATCC29213; for antibacterial activity against S. aureus ATCC 29213: in words
Method: as §1, §2

[7] = pH 5.0, p-nitrophenyl-β-D-glucopyranoside, footnote *
[8] = pH 6.8, p-nitrophenyl-α-D-galactopyranoside, footnote *
[9] = broth microdilution, 20 h at 35 °C, read-out: MIC E. coli ATCC25922
[10] = pH 7.2, p-nitrophenyl-α-D-glucopyranoside, footnote *
[11] = pH 5.2, footnote *, read-out: IC50 GBA pH 5.2
[12] = pH 7.0, footnote *, read-out: IC50 GBA pH 7.0
[13] = broth microdilution, 20 h at 35 °C, read-out: MIC S. aureus ATCC29213
[14] = pH 5.0, p-nitrophenyl-b-d-glucopyranoside, footnote **
[15] = pH 6.8, p-nitrophenyl-a-d-galactopyranoside, footnote **
[16] = pH 7.2, p-nitrophenyl-a-d-glucopyranoside, footnote **
[17] = pH 5.2, footnote **, read-out: IC50 GBA pH 5.2
[18] = pH 7.0, footnote **, read-out: IC50 GBA pH 7.0
[19] = pH 5.0, p-nitrophenyl-β-D-glucopyranoside, footnote ***
[20] = pH 6.8, p-nitrophenyl-α-D-galactopyranoside, footnote ***
[21] = pH 7.2, p-nitrophenyl-α-D-glucopyranoside, footnote ***
[22] = pH 5.2, footnote ***, read-out: IC50 GBA pH 5.2
[23] = pH 7.0, footnote ***, read-out: IC50 GBA pH 7.0

Compound | IC50 [1, 7] [µM] | IC50 ([2]; footnote *) [µM] | IC50 [3, 8] [µM] | IC50 ([4]; footnote *) [µM] | IC50 (naringinase (Nar); footnote *) [µM] | MIC (E. coli (ATCC 25922); [9]) [µM] | IC50 [5, 10] [µM] | MIC (S. aureus (ATCC 29213); [13]) [µM] | antibacterial activity against S. aureus ATCC 29213 (S. aureus (ATCC 29213)) | IC50 [1, 14] [µM] | IC50 ([2]; footnote **) [µM] | IC50 [3, 15] [µM] | IC50 ([4]; footnote **) [µM] | IC50 (naringinase (Nar); footnote **) [µM] | IC50 [5, 16] [µM] | IC50 [6, 17] [µM] | IC50 [6, 18] [µM] | also measured
CCCCCCCCCCN(CCCCCCCCCC)C(=O)CN=C1OCC2C(O)C(O)C(O)CN12 (stereo not shown) [Compound 2] | > 100 | 0.9 ± 0.1 | > 100 | > 10 | 0.5 ± 0.01 | > 500 | > 100 | 125 | modest antibacterial activities |  |  |  |  |  |  |  |  | IC50 [6, 11]: 0.01 ± 0.001 µM; IC50 [6, 12]: 0.002 ± 0.001 µM
CCCCCCCCCCCCNC(=N)N1CC(O)C(O)C(O)C1 (stereo not shown) [Compound 4] |  |  |  |  |  | 500 |  | 62.5 | modest antibacterial activities | 10.7 ± 0.3 | 0.7 ± 0.1 | > 100 | > 10 | 37.2 ± 1.7 | > 100 | 0.04 ± 0.01 | 0.02 ± 0.001 | 
CCCCCCCCCCCCCCNC(=N)N1CC(O)C(O)C(O)C1 (stereo not shown) [Compound 5] |  |  |  |  |  | 125 |  | 15 | modest antibacterial activities | 2.8 ± 0.1 | 1.6 ± 0.2 | > 100 | > 10 | 33.5 ± 1.7 | > 100 | 0.04 ± 0.01 | 0.02 ± 0.001 | 
CCCCCCCCCCN(CCCCCCCCCC)C(=O)CNC(=N)N1CC(O)C(O)C(O)C1 (stereo not shown) [Compound 6] |  |  |  |  |  | 500 |  | ≤ 4 | modest antibacterial activities | > 100 | 11.6 ± 4 | > 100 | > 10 | 3.9 ± 0.6 | > 100 | 0.04 ± 0.01 | 0.02 ± 0.001 | 
CCCCCCCCNC(=O)N1CC(O)C(O)C(O)C1 (stereo not shown) [Compound 7] |  |  |  |  |  | > 500 |  | 125 | modest antibacterial activities | > 100 | 19.6 ± 1.5 | > 100 | > 10 | > 100 | > 100 | > 10 | > 10 | 
CCCCCCCCCCCCNC(=O)N1CC(O)C(O)C(O)C1 (stereo not shown) [Compound 9] |  |  |  |  |  | > 500 |  | 250 | modest antibacterial activities | > 100 | 12.9 ± 1.9 | > 100 | > 10 | > 100 | > 100 | > 10 | > 10 | 
CCCCCCCCCCCCCCNC(=O)N1CC(O)C(O)C(O)C1 (stereo not shown) [Compound 10] |  |  |  |  |  | > 500 |  | > 500 |  | > 100 | 34.2 ± 1.9 | > 100 | > 10 | > 100 | > 100 | > 10 | > 10 | 
CCCCOC1OCC(CNC(=N)N2CC(O)C(O)C(O)C2)O1 (stereo not shown) [Compound 11] |  |  |  |  |  | > 500 |  | > 500 |  |  |  |  |  |  |  |  |  | IC50 [1, 19]: 19.2 ± 0.5 µM; IC50 ([2]; footnote ***): > 30 µM; IC50 [3, 20]: > 30 µM; IC50 ([4]; footnote ***): > 30 µM; IC50 (naringinase (Nar); footnote ***): > 30 µM; IC50 [5, 21]: > 30 µM; IC50 [6, 22]: > 30 µM; IC50 [6, 23]: 2.56 ± 0.233 µM
CCCCCCCCN=C1OCC2C(O)C(O)C(O)CN12 (stereo not shown) [Compound 12] | 5.7 ± 0.4 | 0.4 ± 0.01 | > 100 | > 10 | 0.1 ± 0.01 |  | > 100 |  |  |  |  |  |  |  |  |  |  | IC50 [6, 11]: 0.1 ± 0.01 µM; IC50 [6, 12]: 0.02 ± 0.001 µM
CCCCCCCCCCN=C1OCC2C(O)C(O)C(O)CN12 (stereo not shown) [Compound 13] | 2.1 ± 0.1 | 0.1 ± 0.01 | > 100 | > 10 | 0.01 ± 0.01 |  | > 100 |  |  |  |  |  |  |  |  |  |  | IC50 [6, 11]: 0.02 ± 0.001 µM; IC50 [6, 12]: 0.001 ± 0.001 µM
CCCCCCCCCCCCN=C1OCC2C(O)C(O)C(O)CN12 (stereo not shown) [Compound 14] | 1.6 ± 0.1 | < 0.1 | > 100 | > 10 | 0.1 ± 0.01 |  | > 100 |  |  |  |  |  |  |  |  |  |  | IC50 [6, 11]: 0.01 ± 0.001 µM; IC50 [6, 12]: 0.001 ± 0.001 µM
CCCCCCCCNC(=N)N1CC(O)C(O)C(O)C1 (stereo not shown) [Compound 15] |  |  |  |  |  |  |  |  |  | 38.1 ± 1.5 | < 0.1 | > 100 | > 10 | 53 ± 2.2 | > 100 | 0.99 ± 0.09 | 0.24 ± 0.02 | 
CCCCCCCCCCN(CCCCCCCCCC)C(=O)CNC(=O)N1CC(O)C(O)C(O)C1 (stereo not shown) [Compound 16] |  |  |  |  |  |  |  |  |  | > 100 | 12.5 ± 2.9 | > 100 | > 10 | > 100 | > 100 | > 10 | > 10 | 
CCCCCCCCOC1OCC(CNC(=N)N2CC(O)C(O)C(O)C2)O1 (stereo not shown) [Compound 17] |  |  |  |  |  |  |  |  |  |  |  |  |  |  |  |  |  | IC50 [1, 19]: 14.6 ± 0.6 µM; IC50 ([2]; footnote ***): > 30 µM; IC50 [3, 20]: > 30 µM; IC50 ([4]; footnote ***): > 30 µM; IC50 (naringinase (Nar); footnote ***): > 30 µM; IC50 [5, 21]: > 30 µM; IC50 [6, 22]: > 30 µM; IC50 [6, 23]: 0.03 ± 0.01 µM
CCCCCCCCCN1C[C@H](O)[C@@H](O)[C@H](O)[C@H]1CO [NN-DNJ, reference compound] | > 100 | > 100 | > 100 | > 10 | 0.1 ± 0.01 |  | > 100 |  |  | > 100 | > 100 | > 100 | > 10 | 0.2 ± 0.01 | > 100 |  |  | IC50 [1, 19]: > 30 µM; IC50 ([2]; footnote ***): > 30 µM; IC50 [3, 20]: > 30 µM; IC50 ([4]; footnote ***): > 30 µM; IC50 (naringinase (Nar); footnote ***): 0.1 ± 0.01 µM; IC50 [5, 21]: > 30 µM
CN(C)[C@@H]1C(O)=C(C(N)=O)C(=O)[C@@]2(O)C(O)=C3C(=O)c4c(O)cccc4[C@@](C)(O)[C@H]3C[C@@H]12 [Tetracycline, reference compound] |  |  |  |  |  |  |  |  |  |  |  |  |  |  |  |  |  | MIC (E. coli (ATCC 25922); positive control on every assay plate, read-out: MIC E. coli): 1 µg/mL; MIC (S. aureus (ATCC 29213); positive control on every assay plate, read-out: MIC S. aureus): 0.5 µg/mL
